Data published in patent US20170273922A1, “UREA AND BIS-UREA BASED COMPOUNDS AND ANALOGUES THEREOF USEFUL IN THE TREATMENT OF ANDROGEN RECEPTOR MEDIATED DISEASES OR DISORDERS” (THE ROYAL INSTITUTION FOR THE ADVACEMENT OF LEARNING/MCGILL …, priority 2014, published 2017).

Tests used:
Format in all cases: cell-based
[1] = MTT assay (cytotoxicity), LNCaP cells; conditions: human, LNCaP cells
Description: (§1) MTT assays: LNCaP, 22Rv1, Du145, H1975, A549, MB231 and MCF-7 cells are maintained in RPMI 1640 supplemented with 10% FBS. Cells were seeded at a density of 6-7×10^3 cells per well in 96-well plates. After overnight incubation, cells in fresh RPMI 1640 supplemented with 10% FBS were exposed to DMSO vehicle control or test compounds at designated concentrations for 72 h. Viable cells were evaluated by MTT assays. Experiments were performed in triplicate and repeated at least twice.

[2] = MTT assay (cytotoxicity), 22Rv1 cells; conditions: human, 22Rv1 cells, 72 h treatment, Table 6.1
Description: as §1

[3] = tested on: LNCaP cells; assay: MTT assay (cytotoxicity), LNCaP cells; conditions: 72 h
Description: as §1

[4] = tested on: 22Rv1 cells; assay: MTT assay (cytotoxicity), 22Rv1 cells; conditions: 72 h
Description: as §1

[5] = tested on: DU145 cells; assay: MTT assay (cytotoxicity), DU145 cells; conditions: 72 h
Description: as §1

[6] = MTT assay (cytotoxicity), DU145 cells; conditions: human, DU145 cells, Table 2.3
Description: as §1

`O=C(Nc1ccc(F)c(NC(=O)c2cc(C(F)(F)F)ccc2F)c1)Nc1ccccc1C(F)(F)F` [Compound 959] gave an IC50 at 72 h ([1]; 72 h treatment, Table 6.1) of 13.5 µM and an IC50 at 72 h [2] of 8.7 µM.
Compound `N#Cc1ccc(NC(=O)N/C=C/c2cc(C(F)(F)F)ccc2C(F)(F)F)cc1C(F)(F)F` [Compound 464] has an IC50 ([3]; Table 2.2) of 0.4 µM, an IC50 ([4]; Table 2.2) of 0.7 µM and an IC50 ([5]; Table 2.2) of 0.4 µM.
For `O=C(Nc1cccc(C(F)F)c1)Nc1ccc(NC(=O)c2ccccc2F)c(C(F)(F)F)c1` [Compound 912], the IC50 at 72 h ([1]; 72 h treatment, Table 6.1) was 11.6 µM and the IC50 at 72 h [2] was 16 µM.
For `O=C(N/C=C/c1ccc(C(F)(F)F)cc1)Nc1ccc([N+](=O)[O-])c(C(F)(F)F)c1` [Compound 407], the IC50 ([3]; Table 2.2) was 9.6 µM and the IC50 ([5]; Table 2.2) was 15.3 µM.
Compound `O=C(N/C=C/c1cc(C(F)(F)F)cc(C(F)(F)F)c1)Nc1cncc(F)c1` [Compound 535] has an IC50 ([3]; Table 2.1) of 2.6 µM, an IC50 ([4]; Table 2.1) of 3.1 µM and an IC50 ([5]; Table 2.1) of 3 µM.
With `O=C(N/C=C/c1ccccc1C(F)(F)F)Nc1ccc2c(c1)OCO2` [Compound 427] the IC50 at 72 h ([1]; 72 h, Table 2.3) was 9.5 µM and the IC50 at 72 h [6] was 19.2 µM.
With `N#Cc1ccc(NC(=O)N/C=C/c2cccc(C(F)(F)F)c2)cc1` [Compound 416] the IC50 ([3]; Table 2.2) was 1.6 µM, the IC50 ([4]; Table 2.2) was 3.6 µM and the IC50 ([5]; Table 2.2) was 2.6 µM.
In the case of `COc1cccc(NC(=O)N/C=C/c2cccc(C(F)(F)F)c2)c1` [Compound 417], the IC50 ([3]; Table 2.2) is reported as 14.6 µM, the IC50 ([4]; Table 2.2) is reported as 10.8 µM and the IC50 ([5]; Table 2.2) is reported as 12.2 µM.
`N#Cc1ccc(NC(=O)N/C=C/c2ccc(C(F)(F)F)cc2)cc1C(F)(F)F` [Compound 421] gave an IC50 ([3]; Table 2.2) of 1.4 µM, an IC50 ([4]; Table 2.2) of 7.2 µM and an IC50 ([5]; Table 2.2) of 3.4 µM.
Compound `N#Cc1ccc(NC(=O)Nc2ccc(C(F)(F)F)cc2)cc1Cl` [Compound 502] has an IC50 ([3]; LNCaP cells, Table 4.2) of 1.2 µM, an IC50 ([4]; 22Rv1 cells, Table 4.2) of 2.2 µM and an IC50 ([5]; DU145 cells, Table 4.2) of 4.1 µM.
In the case of `O=C(N/C=C/c1cccc(C(F)(F)F)c1)Nc1ccc(-n2ccnc2)cc1` [Compound 446], the IC50 ([3]; Table 2.2) is reported as 11.1 µM, the IC50 ([4]; Table 2.2) is reported as 18.4 µM and the IC50 ([5]; Table 2.2) is reported as greater than 20 µM.
`N#Cc1ccc(NC(=O)N/C=C/c2ccccc2C(F)(F)F)cc1` [Compound 405] gave an IC50 ([3]; Table 2.2) of 3.4 µM and an IC50 ([5]; Table 2.2) of 8.3 µM.
Compound `O=C(Nc1cccc(C(F)(F)F)c1)Nc1ccc(F)c(NC(=O)c2cc(I)ccc2F)c1` [Compound 951] has an IC50 at 72 h ([1]; 72 h treatment, Table 6.1) of 4 µM and an IC50 at 72 h [2] of 9.8 µM.
For `N#Cc1ccc(NC(=O)Nc2cc(C(F)(F)F)cc(C(F)(F)F)c2)cc1C(F)(F)F` [Compound 494], the IC50 ([3]; LNCaP cells, Table 4.2) was 0.3 µM, the IC50 ([4]; 22Rv1 cells, Table 4.2) was 1.6 µM and the IC50 ([5]; DU145 cells, Table 4.2) was 1.5 µM.
Work on `O=C(Nc1cccc(C(F)(F)F)c1)Nc1ccc(F)c(NC(=O)c2ccc(F)cc2)c1` [Compound 947] yielded an IC50 at 72 h ([1]; 72 h treatment, Table 6.1) of 12.7 µM and an IC50 at 72 h [2] of 15.9 µM.
In the case of `N#Cc1ccc(NC(=O)N/C=C/c2cc(C(F)(F)F)ccc2C(F)(F)F)nc1` [Compound 481], the IC50 ([4]; Table 2.1) is reported as 2.6 µM and the IC50 ([5]; Table 2.1) is reported as 0.8 µM.
Work on `O=C(N/C=C/c1cccc(OC(F)(F)F)c1)Nc1ccc([N+](=O)[O-])c(C(F)(F)F)c1` [Compound 437] yielded an IC50 ([3]; Table 2.2) of 1.6 µM, an IC50 ([4]; Table 2.2) of 2.7 µM and an IC50 ([5]; Table 2.2) of 3 µM.
`O=C(N/C=C/c1ccccc1C(F)(F)F)Nc1cccc(C(F)(F)F)c1` [Compound 406] showed an IC50 ([3]; Table 2.2) of 14.4 µM.
`N#Cc1ccc(NC(=O)Nc2ccc(C(F)(F)F)cc2)cc1C(F)(F)F` [Compound 509] showed an IC50 ([3]; LNCaP cells, Table 4.2) of 0.7 µM, an IC50 ([4]; 22Rv1 cells, Table 4.2) of 1.6 µM and an IC50 ([5]; DU145 cells, Table 4.2) of 5.4 µM.
Compound `O=C(Nc1cccc(C(F)(F)F)c1)Nc1ccc(C(=O)Nc2ccc(F)cc2)c(C(F)(F)F)c1` [Compound 904] has an IC50 at 72 h ([1]; 72 h treatment, Table 6.1) of 4.1 µM and an IC50 at 72 h [2] of 3.2 µM.
Compound `O=C(N/C=C/c1cc(C(F)(F)F)cc(C(F)(F)F)c1)Nc1nccc(C(F)(F)F)n1` [Compound 538] has an IC50 ([3]; Table 2.1) of less than 1 µM and an IC50 ([5]; Table 2.1) of 1.2 µM.
With `O=C(N/C=C/c1cccc(F)c1)Nc1cccc(C(F)(F)F)c1` [Compound 414] the IC50 ([3]; Table 2.2) was 3.8 µM, the IC50 ([4]; Table 2.2) was 8.2 µM and the IC50 ([5]; Table 2.2) was 7.8 µM.
In the case of `COc1cccc(/C=C/NC(=O)Nc2cccc(OC)c2)c1` [Compound 430], the IC50 ([3]; Table 2.2) is reported as greater than 20 µM and the IC50 ([4]; Table 2.2) is reported as greater than 20 µM.
For `O=C(Nc1cccc(C(F)(F)F)c1)Nc1cc(NC(=O)Nc2cccc(C(F)(F)F)c2)cc(C(F)(F)F)c1` [Compound 953], the IC50 at 72 h ([1]; 72 h treatment, Table 6.1) was 1.4 µM and the IC50 at 72 h [2] was 0.9 µM.
Work on `O=C(N/C=C/c1cc(C(F)(F)F)cc(C(F)(F)F)c1)Nc1ncccc1Br` [Compound 527] yielded an IC50 ([3]; Table 2.1) of 5.3 µM, an IC50 ([4]; Table 2.1) of 7.6 µM and an IC50 ([5]; Table 2.1) of 6.8 µM.
In the case of `O=C(Nc1cccc(C(F)(F)F)c1)Nc1ccc(F)cc1NC(=O)c1ccc(F)cc1F` [Compound 961], the IC50 at 72 h ([1]; 72 h treatment, Table 6.1) is reported as 6.2 µM and the IC50 at 72 h [2] is reported as 10.1 µM.
Work on `COc1cccc(NC(=O)N/C=C/c2ccccc2C(F)(F)F)c1` [Compound 429] yielded an IC50 ([3]; Table 2.2) of 9.1 µM, an IC50 ([4]; Table 2.2) of 16.4 µM and an IC50 ([5]; Table 2.2) of 14.9 µM.
Compound `O=C(Nc1cccc(C(F)(F)F)c1)Nc1ccc(F)c(NC(=O)c2ccc(F)cc2F)c1` [Compound 943] has an IC50 at 72 h ([1]; 72 h treatment, Table 6.1) of 6.3 µM and an IC50 at 72 h [2] of 13 µM.
